Reference: patent US12410124B2 (priority 2019, dated 2025)
Like-named read-outs stand apart in the source and are kept apart here.

Tests used:
GCLC = assay: Midbrain GCLC expression in MPTP Parkinson's disease model mouse (western blot); format: in vivo; details: for Expression (GCLC/GAPDH): midbrain, MPTP Parkinson's disease model mouse, western blot
Description: (§1) Neurotoxins can be used to establish PD animal models. Currently, 1-methyl-4-phenyl-1,2,3,6-tetrahydropyridine (MPTP) is the sole synthetic toxin which is recognized to induce PD symptoms in human and non-human primates and in mice. Using MPTP subacute modeling method, C57BL/6J male mice were intraperitoneally injected with MPTP 30 mg/kg, once a day for 5 consecutive days. The experiment animals were divided into blank control group, MPTP model group, and compound treatment group. For the […] compound treatment group, the compound was administrated by gavage for 21 consecutive days after the completion of modeling; for the MPTP model group, the normal saline was administrated by gavage for 21 consecutive days after the completion of modeling; and for the blank control group, the normal saline was first intraperitoneally injected for 5 days, and then administrated by gavage for 21 days.
Oxidative stress is an important pathogenic mechanism of PD. Dopaminergic neurons are more sensitive to oxidative stress and are more susceptible to oxidative stress damage. Glutathione (GSH) is an important antioxidant substance in the cell, and glutamate cysteine ligase (GCL) is the rate-limiting enzyme for GSH synthesis, which is composed of catalytic subunit (GCLC) and regulatory subunit (GCLM). The increase of GCLC expression can promote the synthesis of GSH and enhance the ability of tissue cells against oxidative stress. GCL, a phase II enzyme, plays an important protective role by catalyzing the conversion of free radicals into non-toxic products and increasing their water solubility to facilitate the elimination of free radicals, and maintain the redox balance in the body. It plays an important role in the process of protecting cells against oxidative stress damage. The activation of p38 protein phosphorylation has a negative regulatory effect on phase II enzymes. […] Using GCLC as an indicator, the inhibitory effect of the target compounds on MPTP-induced oxidative stress damage in PD mice can be investigated.
GCLC is expressed in astrocytes, microglial cells, and neurons. The total proteins of the midbrain tissue of mice in each experiment group were extracted, to determine the expression of phase II enzyme GCLC in the midbrain of mice by western blot using GAPDH as the internal reference. The experiment included blank control group, MPTP model group, positive control group (caffeic acid phenethyl ester, CAPE), prototype control group (styryl sulfone compounds 3B, 3C, 3D), and 3G, whose structures are shown as above), and target compound group.

[1] = biological target: acetylcholinesterase (AchE) (Homo sapiens, UniProt P22303); assay: biochemical
Chain of acetylcholinesterase (AchE) (P22303 32-614, species assumed): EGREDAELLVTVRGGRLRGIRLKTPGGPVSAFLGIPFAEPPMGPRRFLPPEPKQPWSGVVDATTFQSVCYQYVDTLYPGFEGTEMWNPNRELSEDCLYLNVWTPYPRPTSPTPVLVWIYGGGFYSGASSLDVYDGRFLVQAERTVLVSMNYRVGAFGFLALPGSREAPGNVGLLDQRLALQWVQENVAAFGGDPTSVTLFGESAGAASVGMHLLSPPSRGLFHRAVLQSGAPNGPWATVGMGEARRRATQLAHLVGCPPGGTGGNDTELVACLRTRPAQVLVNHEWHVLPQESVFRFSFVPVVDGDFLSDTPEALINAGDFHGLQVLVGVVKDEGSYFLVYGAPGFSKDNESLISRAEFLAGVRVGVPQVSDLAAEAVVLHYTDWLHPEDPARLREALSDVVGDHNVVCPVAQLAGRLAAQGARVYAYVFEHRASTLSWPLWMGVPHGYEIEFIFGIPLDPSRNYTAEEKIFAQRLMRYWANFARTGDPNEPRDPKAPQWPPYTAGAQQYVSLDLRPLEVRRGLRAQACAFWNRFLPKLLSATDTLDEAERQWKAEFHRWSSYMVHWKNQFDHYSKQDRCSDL
Description: The modified Ellman method was used to determine the inhibitory activity on acetylcholinesterase. The principle lies in that acetylthiocholine iodide is decomposed under the action of acetylcholinesterase (AchE) to generate thiocholine. The thiocholine is quickly reacted with DTNB as the colour-developing agent to generate a yellow substance with light absorption at 405 nm. To a 96-well microplate, 50 μl of enzyme reaction buffer, 125 μl of DTNB (3 mM), 25 μl of test sample or positive control drug, and 25 μl of AchE (0.2 U/ml) were successively added. After incubation at room temperature for 5 min, 25 μl of ATCI (15 mM) was added. After incubation at room temperature for 8 min, the absorbance value was determined at 405 nm with a microplate reader. A blank control group without enzyme (25 μl PBS instead of the sample to be tested) was also established.

midbrain pp38 = assay: Midbrain pp38 protein expression in MPTP Parkinson's disease model mouse (western-blotting); format: in vivo; details: midbrain total protein, GAPDH internal reference, gavage 21 days after MPTP modeling
Description: as §1
The p38 mitogen-activated protein kinase (p38 MAPK) is expressed in both neurons and glial cells, and is the intersection point of neuron-glial cell network information regulations. The activation of p38 signaling pathway is an important initiator of neuronal degeneration, which continuously induces the apoptosis of dopaminergic neurons in multiple ways. It has become a research hotspot for the treatment of PD. Studies have shown that the protective mechanism of CAPE against the death of primary cultured cerebellar granule neurons induced by glutamate lies in inhibiting the activation of p38 phosphorylation and in turn inhibiting the activation of the caspase 3 apoptotic pathway to prevent neuronal apoptosis. Therefore, the MPTP-induced PD mouse model can be used to investigate the inhibitory effect of the target compounds on the activation of p38 phosphorylation on the overall animal level.
(§2) Half of experiment mice in each group were taken to extract the total midbrain protein, and the change in the midbrain phosphorylated p38 protein expression was determined by western-blotting using GAPDH as the internal reference. The experiment included blank control group, MPTP model group, positive control group (caffeic acid phenethyl ester, CAPE), prototype control group (styryl sulfone compounds 3B, 3C, 3D, and 3G, whose structures are shown as above), and target compound group.

midbrain p-α-s = assay: Midbrain p-α-s protein expression in MPTP Parkinson's disease model mouse (western-blotting); format: in vivo; details: midbrain total protein, GAPDH internal reference, gavage 21 consecutive days after MPTP modeling
Description: as §1
Alpha-synuclein is an “unfolded protein” in its natural state. It exists in a monomeric form, and participates in the physiological functions such as the release of neurotransmitters, the establishment of synaptic junctions, and the regulation of synaptic plasticity. Under pathological conditions, more than 90% of alpha-synuclein is phosphorylated at serine of position 129 and converted into phosphorylated alpha-synuclein (p-α-s), thereby forming Lewy bodies. The formation of Lewy bodies is one of the main pathological manifestations and pathological mechanisms for Parkinson's disease, and plays an important role in the formation and development of PD. The detection of the p-α-s expression in the midbrain and substantia nigra of PD model mice can evaluate the neuroprotective activity of the compound.
as §2, with “P-α-s” for “phosphorylated p38”

[2] = acetylcholinesterase, modified Ellman method, read-out: IC50

Compound | Expression (GCLC/GAPDH) (GCLC) | IC50 [1, 2] | Expression (pp38/GAPDH) (midbrain pp38) | Expression (p-α-s/GAPDH) (midbrain p-α-s) | IC50 [1] | midbrain GCLC expression compared with the styryl sulfone prototype compounds (GCLC)
O=S(=O)(/C=C/c1ccc(O)c(O)c1)Cc1ccc(C(F)(F)F)cc1 [Compound 3B, (E)-4-{2-[(4-trifluoromethylphenyl)mesyl]ethenyl}benzene-1,2-diol, reference compound] | 0.33 ± 0.04 | > 100 µM | 1.18 ± 0.08 | 0.93 ± 0.04 | – | –
CN(C)c1ccc(CC(=O)Oc2cc(/C=C/S(=O)(=O)C(Br)c3ccc(Cc4ccc(N(C)C)cc4)cc3)ccc2OC(=O)N2CCCC2C(F)(F)F)cc1 (centres unmarked) [Compound M1-5] | 1.35 ± 0.08 | 31.3 ± 4.63 µM | 0.29 ± 0.06 | 0.24 ± 0.05 | – | –
CCN(C)C(=O)Oc1ccc(/C=C/S(=O)(=O)CC(c2ccc(-c3ccc(OC)c(OC)c3)cc2)[N+](=O)[O-])cc1OC(=O)N(C)CC (centres unmarked) [Compound M1-1, (E)-4-{2-[2-(3′,4′-dimethoxy-[1,1′-biphenyl]-4-yl)-2-nitroethylsulfonyl]ethenyl}-1,2-phenylenebis(N-ethyl-N-methylcarbamate)] | 1.30 ± 0.09 | – | 0.40 ± 0.05 | 0.27 ± 0.08 | 6.6 ± 0.71 µM | –
CCN(CC)C(=O)Oc1ccc(/C=C/S(=O)(=O)Cc2ccc(C(C)(C)C)cc2)cc1OC(=O)N(CC)CC [Compound G1-1, (E)-4-{2-[(4-t-butylphenyl)mesyl]ethenyl}-1,2-phenylenebis(diethylcarbamate)] | 1.05 ± 0.04 | 10.8 ± 2.13 µM | 0.33 ± 0.07 | 0.34 ± 0.09 | – | significantly higher
COc1cc(/C=C/S(=O)(=O)Cc2cc(OC)c(OC)c(OC)c2)ccc1OC(=O)N(c1ccccc1)c1ccccc1 [Compound K3-3, (E)-2-methoxy-4-{2-[(3,4,5-trimethoxyphenyl)mesyl]ethenyl}-phenyl-N,N-diphenylcarbamate] | 0.86 ± 0.04 | 38.3 ± 2.79 µM | 0.55 ± 0.08 | 0.62 ± 0.11 | – | –
COc1ccc(CC(=O)Oc2ccc(C(N)CS(=O)(=O)/C=C/c3ccc(OC(C)(C)C)c(OC(=O)N(C)c4ccccc4)c3)cc2)cc1 (centres unmarked) [Compound P1-3, (E)-4-{1-amino-2-[4-t-butoxy-3-(N-methyl-N-phenylcarbamoyloxy)styrylsulfonyl]ethyl}phenyl-2-(4-methoxyphenyl)acetate] | 0.91 ± 0.11 | – | 0.33 ± 0.07 | 0.31 ± 0.05 | 14.4 ± 2.04 µM | –
CCN(CC)C(=O)Oc1ccc(/C=C/S(=O)(=O)Cc2ccc(Cl)cc2)cc1OC(=O)N(CC)CC [Compound D1-1, (E)-4-{2-[(4-chlorophenyl)mesyl]ethenyl}-1,2-phenylenebis(diethylcarbamate)] | 1.29 ± 0.05 | 4.16 ± 1.07 µM | 0.50 ± 0.13 | 0.42 ± 0.10 | – | significantly higher
(E)-2-[(methylamino)methoxy]-4-{2-[1-(4′-nitro-[1,1′-biphenyl]-4-yl)ethylsulfonyl]ethenyl}phenylcarbamate [Compound M1-3] | 0.82 ± 0.07 | 17.6 ± 2.19 µM | 0.42 ± 0.06 | 0.42 ± 0.05 | – | –
O=S(=O)(/C=C/c1ccc(O)c(O)c1)Cc1ccc(Cl)cc1 [Compound 3D, (E)-4-{2-[(4-chlorophenyl)mesyl]ethenyl}benzene-1,2-diol, reference compound] | 0.53 ± 0.04 | > 100 µM | 1.00 ± 0.11 | 0.49 ± 0.12 | – | –
